Test results as given in patent publication US20150011483A1, “Inhibition of HIV-1 Infection by Potent Metallocene Conjugated Peptide Through Conformational Entrapment of Envelope GP120” (priority 2007, published 2015).
Read-outs that look alike come from different tables or passages of the source.

Key:
HIV-1 strain BaL [1] = settings: P4-CCR5 cells (Gopi et al., 2008); read-out: IC50, inhibition of infection by HIV-1 BaL; cited from earlier work
HIV-1 YU2 gp120 = target: T1, HIV-1 YU2 gp120 (Human immunodeficiency virus type 1 group M subtype B, UniProt P35961); assay: SPR direct binding to immobilized YU2 gp120
T1 construct: made in house; host or cells: Drosophila S2 cells
Experimental: All surface plasmon resonance experiments (SPR) were performed on a BIA3000 optical biosensor (Biocore, Inc., Uppsala, Sweden). […] For direct binding experiments, YU2 gp120 was immobilized on the surface (˜4000RU); peptide analytes in PBS buffer were passed over the surface at a flow rate of 50 μL/min. with 5 minute association phase and 5 minute dissociation phase. […] The indicated analytes were passed over the surfaces at a flow rate of 50 μL/minute, with 2.5 minute association phase and 2.5 minute dissociation phase.
Data analysis was performed using BIAEvaluation® 4.0 software (Biacore Inc., NJ). The responses of a buffer injection and responses from the control surface to which the mAb 2B6R was immobilized, were subtracted to account for nonspecific binding. Experimental data were fitted to a simple 1:1 Langmuir binding model with a parameter included for mass transport. The average kinetic parameters (association [ka] and dissociation [kd] rates) generated from a minimum of four datasets were used to define equilibrium association (KA) and dissociation constants (KD).

HIV-1 92UG037-08 gp120 = assay: SPR direct binding to immobilized 92UG037-08 gp120; settings: HIV-1 env 92UG037-08 (A)
[2] = target: T2, YU2 gp120 binding to sCD4 (Human immunodeficiency virus type 1 group M subtype B, UniProt P35961); assay: SPR competition: inhibition of YU2 gp120 binding to immobilized sCD4; design: species or system HIV-1; settings: 100 nM YU2 gp120, peptide 10 to 600 nM
T2 construct: made in house; host or cells: gp120: Drosophila S2 cells; sCD4: CHO cells
From the text: (§1) In one experiment, antibodies b6, b12, or F105 were immobilized on a biosensor CM5 chip.

YU2 gp120 binding to 17b = target: T3, YU2 gp120 binding to 17b (Human immunodeficiency virus type 1 group M subtype B, UniProt P35961); assay: SPR competition: inhibition of YU2 gp120 binding to immobilized 17b; design: species or system HIV-1; settings: 100 nM YU2 gp120, peptide 10 to 600 nM
T3 construct: made in house; host or cells: gp120: Drosophila S2 cells
From the text: as §1

gp120 binding to 2G12 = target: T4, gp120 binding to 2G12 (Human immunodeficiency virus type 1 group M subtype B, UniProt P35961); assay: Effect on gp120 binding to antibody 2G12; design: species or system HIV-1
T4 construct: with a constant concentration (100 nM) of YU2 gp120

gp120 binding to sCD4 = target: T5, gp120 binding to sCD4 (Human immunodeficiency virus type 1 group M subtype B, UniProt P35961); design: species or system HIV-1; settings: in the presence of HNG-156
T5 construct: made in house; host or cells: sCD4: CHO cells; gp120 (if YU2): Drosophila S2 cells

HIV-1 strain BaL [3] = assay: Inhibition of HIV-1 BaL infection of P4-CCR5 cells (whole virus assay); type: cell-based
From the text: Infectivity remaining is expressed relative to mock-treated, HIV-1-infected cells.

P4-CCR5 cells [4] = assay: In vitro cytotoxicity, MTT assay; type: cell-based; settings: concentrations as high as 0.1 mg/ml, 2 hours
Experimental: P4-CCR5 cells were seeded at a density of 4×10^4 cells/well in a 96 well plate approximately 18 hours prior to experiment. […] The cells were subsequently washed and assessed for viability using a 3-(4,5-dimethylthiazol-2-yl)-2,5-diphenyltetrazolium bromide (MTT) assay of viability (previously described in Krebs et al. (1999). Concentrations were tested in triplicate in two independent assays.

HIV-1 strain BaL [5] = assay: Combination of HNG-156 and cyanovirin-N against HIV-1 BaL infection of P4-CCR5 cells; type: cell-based; settings: for IC50, viral infectivity inhibition: HIV-1 BaL, P4-CCR5 cells, combination at constant ratio 1:8.2 by weight, plotted against first-named component
Experimental: Dextran sulfate (DS) was used as a comparative. […] Combination Indexes (CIs) were calculated using the CalcuSyn software. […] CI values were calculated for 50, 75, and 90% HIV inhibition.

sCD4 = target: T6, sCD4 (Homo sapiens, UniProt P01730); assay: SPR direct binding of peptide to immobilized sCD4
T6 construct: made in house; host or cells: CHO cells

17b = assay: SPR direct binding of peptide to immobilized 17b
P4-CCR5 cells [6] = settings: at concentrations corresponding to IC50 values; cited from earlier work

## CC[C@H](C)[C@H](NC(=O)[C@@H](N)CCCNC(=N)N)C(=O)N[C@@H](CC(N)=O)C(=O)N[C@@H](CC(N)=O)C(=O)N[C@H](C(=O)N1CCC[C@H]1C(=O)N[C@@H](Cc1c[nH]c2ccccc12)C(=O)N[C@@H](CO)C(=O)N[C@@H](CCC(=O)O)C(=O)N[C@@H](C)C(=O)N[C@@H](CCSC)C(=O)N[C@@H](CCSC)C(=O)O)[C@@H](C)CC [12p1, reference compound]
HIV-1 strain BaL [1]
  IC50: 48000 nM

## CC[C@H](C)[C@H](NC(=O)[C@@H](N)CCCNC(=N)N)C(=O)N[C@@H](CC(N)=O)C(=O)N[C@@H](CC(N)=O)C(=O)N[C@H](C(=O)N1C[C@@H](n2cc([C]34[CH]5[CH]6[CH]7[CH]3[Fe]6754389%10[CH]4[CH]3[CH]8[CH]9[CH]4%10)nn2)C[C@H]1C(=O)N[C@@H](Cc1c[nH]c2ccccc12)C(=O)N[C@@H](CO)C(=O)N[C@@H](CCC(=O)O)C(=O)N[C@@H](C)C(=O)N[C@@H](CCSC)C(=O)N[C@@H](CCSC)C(N)=O)[C@@H](C)CC (some centres unmarked) [HNG-156]
HIV-1 YU2 gp120; HIV-1 env YU2, Table 1
  kd: 0.000955 s⁻¹
HIV-1 YU2 gp120; YU2 gp120
  affinity higher than HNG-105's affinity: roughly 3 fold
HIV-1 92UG037-08 gp120
  Kd: 16.3 nM
  ka: 106000 M⁻¹ s⁻¹
[2]
  inhibition of binding of gp120 to sCD4 surface: complete inhibition
YU2 gp120 binding to 17b
  inhibition of binding of gp120 to 17b surface: complete inhibition
gp120 binding to 2G12
  effect on the binding of 2G12: did not show any effect
gp120 binding to sCD4
  reduction of the affinity of CD4: reduced by two orders of magnitude
HIV-1 strain BaL [3]; HIV-1 BaL
  more effective than HNG-105 in inhibiting infection: approximately 15 fold
P4-CCR5 cells [4]
  effect on P4-CCR5 cell viability: no effect
HIV-1 strain BaL [5]
  IC50, viral infectivity inhibition: 0.213 microgram/milliter
sCD4
  direct binding to sCD4: no direct binding
17b
  direct binding to 17b: no direct binding

## RINNIPWSEAMM [HNG-113]
HIV-1 strain BaL [1]
  IC50: 156 nM
P4-CCR5 cells [6]
  impact on cell viability: no or minimal impact

## RINNIPWSEAMM [HNG-124]
HIV-1 strain BaL [1]
  IC50: 418 nM
P4-CCR5 cells [6]
  impact on cell viability: no or minimal impact

## RINNIPWSEAMM [HNG-137]
HIV-1 strain BaL [1]
  IC50: 610 nM
P4-CCR5 cells [6]
  impact on cell viability: no or minimal impact

## dextran sulfate [DS]
HIV-1 strain BaL [3]; result of one trial
  IC50: 9800 nM
  IC50, inhibition of infection by HIV-1 BaL: 4.9 µg/mL
HIV-1 strain BaL [5]
  IC50, viral infectivity inhibition: 0.900 microgram/milliter

B1: Cyanovirin-N: 11 kD protein originally isolated from the cyanobacteria Nostoc ellipsosporum, binds gp120 (protein, listed as Nostoc ellipsosporum)
chain: LGKFSQTCYNSAIQGSVLTSTCERTNGGYNTSSIDLNSVIENVDGSLKWQPSNFIETCRNTQLAGSSELAAECKTRAQQFVSTKINLDDHIANIDGTLKYE
modifications: DISULFID (8)..(22) disulfide bond
HIV-1 strain BaL [5]
  improvement in the efficacy of CV-N in viral inhibition upon addition of HNG-156: ~10 fold
  IC50, viral infectivity inhibition: 0.026 microgram/milliter
HIV-1 strain BaL [5]; dose at which 50% neutralization occurs
  EC50 Dm: 0.045 µg/mL
